# Assay results: PubChem BioAssay (NCI)
#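 Tested at 5 concentrations; 48 h exposure; 96-well plates; endpoints linearly interpolated, else capped at highest concentration. Abbreviation: GI50, concentration required for 50% inhibition of growth. Definition used: TGI = concentration required for complete inhibition of growth.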
# Experiments:
# Assay in all cases: NCI-60 cell line screen, 48 h
# 786-0 renal = tested on: 786-0 renal
# A498 renal = tested on: A498 renal
# A549 NSCLC = tested on: A549 NSCLC
# ACHN renal = tested on: ACHN renal
# BT-549 breast = tested on: BT-549 breast
# CAKI-1 renal = tested on: CAKI-1 renal
# CCRF-CEM leukemia = tested on: CCRF-CEM leukemia
# COLO 205 colon = tested on: COLO 205 colon
# DU-145 prostate = tested on: DU-145 prostate
# EKVX NSCLC = tested on: EKVX NSCLC
# HCC-2998 colon = tested on: HCC-2998 colon
# HCT-116 colon = tested on: HCT-116 colon
# HCT-15 colon = tested on: HCT-15 colon
# HL-60(TB) leukemia = tested on: HL-60(TB) leukemia
# HOP-62 NSCLC = tested on: HOP-62 NSCLC
# HOP-92 NSCLC = tested on: HOP-92 NSCLC
# HS 578T breast = tested on: HS 578T breast
# HT29 colon = tested on: HT29 colon
# IGROV1 ovarian = tested on: IGROV1 ovarian
# K-562 leukemia = tested on: K-562 leukemia
# KM12 colon = tested on: KM12 colon
# LOX IMVI melanoma = tested on: LOX IMVI melanoma
# M14 melanoma = tested on: M14 melanoma
# MALME-3M melanoma = tested on: MALME-3M melanoma
# MCF7 breast = tested on: MCF7 breast
# MDA-MB-231 breast = tested on: MDA-MB-231 breast
# MDA-MB-435 = tested on: MDA-MB-435
# MOLT-4 leukemia = tested on: MOLT-4 leukemia
# NCI-H226 lung = tested on: NCI-H226 lung
structure (smiles),measurement,setting,value
CCN1CCN(c2nc(NNC(=O)c3ccccc3)nc(N3CCN(C(c4ccccc4)c4ccccc4)CC3)n2)CC1,GI50,786-0 renal,1820 nM
same,TGI,786-0 renal,3.47 µM
same,GI50,A498 renal,6.3 µM
same,TGI,A498 renal,27.1 µM
same,GI50,A549 NSCLC,3.7 µM
same,TGI,A549 NSCLC,20.2 µM
same,GI50,ACHN renal,2530 nM
same,TGI,ACHN renal,6.56 µM
same,GI50,BT-549 breast,2490 nM
same,TGI,BT-549 breast,7.6 µM
same,GI50,CAKI-1 renal,2210 nM
same,TGI,CAKI-1 renal,5.76 µM
same,GI50,CCRF-CEM leukemia,2050 nM
same,TGI,CCRF-CEM leukemia,6.36 µM
same,GI50,COLO 205 colon,1900 nM
same,TGI,COLO 205 colon,3.83 µM
same,GI50,DU-145 prostate,8.11 µM
same,TGI,DU-145 prostate,26.5 µM
same,GI50,EKVX NSCLC,10.3 µM
same,TGI,EKVX NSCLC,30 µM
same,GI50,HCC-2998 colon,1950 nM
same,TGI,HCC-2998 colon,4.08 µM
same,GI50,HCT-116 colon,1780 nM
same,TGI,HCT-116 colon,3.41 µM
same,GI50,HCT-15 colon,2300 nM
same,TGI,HCT-15 colon,5.84 µM
same,GI50,HL-60(TB) leukemia,1760 nM
same,TGI,HL-60(TB) leukemia,3.99 µM
same,GI50,HOP-62 NSCLC,12.7 µM
same,TGI,HOP-62 NSCLC,31.8 µM
same,GI50,HOP-92 NSCLC,1390 nM
same,TGI,HOP-92 NSCLC,3.7 µM
same,GI50,HS 578T breast,3.3 µM
same,TGI,HS 578T breast,22.3 µM
same,GI50,HT29 colon,2950 nM
same,TGI,HT29 colon,13.4 µM
same,GI50,IGROV1 ovarian,3.09 µM
same,TGI,IGROV1 ovarian,12.8 µM
same,GI50,K-562 leukemia,1770 nM
same,TGI,K-562 leukemia,4.32 µM
same,GI50,KM12 colon,3.42 µM
same,TGI,KM12 colon,11.8 µM
same,GI50,LOX IMVI melanoma,1820 nM
same,TGI,LOX IMVI melanoma,3.35 µM
same,GI50,M14 melanoma,1880 nM
same,TGI,M14 melanoma,3.56 µM
same,GI50,MALME-3M melanoma,1700 nM
same,TGI,MALME-3M melanoma,3.48 µM
same,GI50,MCF7 breast,1390 nM
same,TGI,MCF7 breast,3.46 µM
same,GI50,MDA-MB-231 breast,2700 nM
same,TGI,MDA-MB-231 breast,7.55 µM
same,GI50,MDA-MB-435,1940 nM
same,TGI,MDA-MB-435,3.78 µM
same,GI50,MOLT-4 leukemia,2010 nM
same,TGI,MOLT-4 leukemia,5.42 µM
same,GI50,NCI-H226 lung,11.9 µM
same,TGI,NCI-H226 lung,29.5 µM
